Laboratory results reported in the NIST ThermoML archive (doi:10.1021/je060271a).

Conditions: 303.15 K, Liquid, Vibrating tube method

CCCCC(=O)OCC(COC(=O)CCCC)(COC(=O)CCCC)COC(=O)CCCC [pentaerythritol tetrapentanoate]
Conditions | mass density [kg/m3]
751.89 kPa | 1011.3
752.93 kPa | 1011.3
753.46 kPa | 1011.4
754.85 kPa | 1011.5
756.07 kPa | 1011.3
757.1 kPa | 1011.2
758.15 kPa | 1011.2
759.55 kPa | 1011.4
760.59 kPa | 1011.3
761.46 kPa | 1011.3
762.5 kPa | 1011.4
763.72 kPa | 1011.3
764.76 kPa | 1011.3
765.97 kPa | 1011.4
767.19 kPa | 1011.3
768.22 kPa | 1011.4
769.27 kPa | 1011.3
770.14 kPa | 1011.4
771.18 kPa | 1011.4
772.57 kPa | 1011.4
773.96 kPa | 1011.4
775 kPa | 1011.3
776.04 kPa | 1011.3
777.44 kPa | 1011.4
778.31 kPa | 1011.3
779.51 kPa | 1011.4
781.59 kPa | 1011.4
782.99 kPa | 1011.3
784.03 kPa | 1011.3
785.06 kPa | 1011.2
786.46 kPa | 1011.3
787.68 kPa | 1011.4
788.72 kPa | 1011.4
790.1 kPa | 1011.3
793.58 kPa | 1011.4
796.19 kPa | 1011.4
797.22 kPa | 1011.4
798.28 kPa | 1011.4
799.66 kPa | 1011.4
800.87 kPa | 1011.4
802.26 kPa | 1011.3
803.13 kPa | 1011.3
804.36 kPa | 1011.3
806.1 kPa | 1011.3
807.3 kPa | 1011.2
808.17 kPa | 1011.4
809.57 kPa | 1011.4
810.78 kPa | 1011.4
811.81 kPa | 1011.4
813.39 kPa | 1011.4
814.44 kPa | 1011.4
815.81 kPa | 1011.4
816.86 kPa | 1011.3
818.08 kPa | 1011.4
819.64 kPa | 1011.3
820.86 kPa | 1011.4
822.25 kPa | 1011.3
823.47 kPa | 1011.4
824.68 kPa | 1011.4
826.25 kPa | 1011.3
827.28 kPa | 1011.4
828.32 kPa | 1011.4
830.07 kPa | 1011.4
831.46 kPa | 1011.3
832.68 kPa | 1011.3
834.23 kPa | 1011.4
835.46 kPa | 1011.3
836.32 kPa | 1011.3
837.71 kPa | 1011.3
839.27 kPa | 1011.4
840.67 kPa | 1011.4
841.53 kPa | 1011.4
843.1 kPa | 1011.5
844.31 kPa | 1011.4
846.05 kPa | 1011.4
847.44 kPa | 1011.4
848.82 kPa | 1011.4
850.22 kPa | 1011.5
851.43 kPa | 1011.4
852.99 kPa | 1011.3
854.55 kPa | 1011.4
855.43 kPa | 1011.3
856.64 kPa | 1011.4
858.56 kPa | 1011.4
859.94 kPa | 1011.3
861.33 kPa | 1011.4
862.89 kPa | 1011.4
864.28 kPa | 1011.4
865.5 kPa | 1011.5
866.89 kPa | 1011.3
868.64 kPa | 1011.3
869.85 kPa | 1011.3
871.4 kPa | 1011.4
872.8 kPa | 1011.3
874.36 kPa | 1011.4
875.58 kPa | 1011.4
877.31 kPa | 1011.4
878.7 kPa | 1011.3
880.09 kPa | 1011.4
881.48 kPa | 1011.3
882.37 kPa | 1011.5
884.28 kPa | 1011.4
885.67 kPa | 1011.4
886.88 kPa | 1011.4
888.45 kPa | 1011.5
890 kPa | 1011.4
891.23 kPa | 1011.4
892.79 kPa | 1011.4
894.35 kPa | 1011.5
895.75 kPa | 1011.3
897.31 kPa | 1011.5
899.39 kPa | 1011.5
900.97 kPa | 1011.4
902.17 kPa | 1011.4
903.4 kPa | 1011.4
904.79 kPa | 1011.4
906.87 kPa | 1011.4
908.62 kPa | 1011.4
910 kPa | 1011.4
911.39 kPa | 1011.4
913.13 kPa | 1011.4
914.69 kPa | 1011.5
916.25 kPa | 1011.5
917.82 kPa | 1011.4
919.55 kPa | 1011.4
921.29 kPa | 1011.4
922.68 kPa | 1011.4
924.26 kPa | 1011.5
925.81 kPa | 1011.4
927.54 kPa | 1011.6
929.11 kPa | 1011.4
931.03 kPa | 1011.4
932.76 kPa | 1011.6
934.31 kPa | 1011.4
936.05 kPa | 1011.5
937.62 kPa | 1011.4
939.53 kPa | 1011.5
941.27 kPa | 1011.5
943 kPa | 1011.4
944.4 kPa | 1011.5
946.13 kPa | 1011.4
947.18 kPa | 1011.5
949.26 kPa | 1011.4
950.82 kPa | 1011.4
952.73 kPa | 1011.5
954.48 kPa | 1011.5
956.38 kPa | 1011.4
958.11 kPa | 1011.4
960.21 kPa | 1011.4
961.77 kPa | 1011.5
963.32 kPa | 1011.5
965.24 kPa | 1011.4
967.49 kPa | 1011.5
969.05 kPa | 1011.5
970.44 kPa | 1011.4
972.01 kPa | 1011.5
974.27 kPa | 1011.4
976.34 kPa | 1011.4
977.92 kPa | 1011.4
979.13 kPa | 1011.6
